Like-named read-outs stand apart in the source and are kept apart here.

The subject of data set [1] is ulcer caused by indomethacin (mucosal lesions in the glandular part of the stomach). As to the kind of experiment: Effect on ulcer caused by indomethacin. The note with it: Rattus norvegicus, ip, read-out: % Inhibition of lesion formation. It is filed as in vivo, male SD rats.
Experimental: Indomethacin is subcutaneously administered to male SD rats (body weight: 200-220 g) fasted for 24 hours at a dose of 30 mg/kg. The stomachs are excised 7 hours after the administration. The total length of mucosal lesions occurred in the glandular part of the stomach is measured and % inhibition of lesion formation is calculated in comparison with those in the control group. Fifteen minutes before the administration of indomethacin, the test compounds are intraperitoneally administered in a form of aqueous solution.
Data set [2] is described as follows: Acute Toxicities. The conditions noted are these: mouse, in vivo, ip; intraperitoneal, aqueous solution; male ddY mice.
Text: Male ddY mice (Body weight 25-28 g each) are employed for the acute toxicity test. The test compounds are intraperitoneally administered in a form of aqueous solution.
Where [3] appears, read: 0.3 mg/Kg, intraperitoneal, 15 min before indomethacin 30 mg/kg s.c., male SD rats, 7 hours.
Where [4] appears, read: 1.0 mg/Kg, intraperitoneal, 15 min before indomethacin 30 mg/kg s.c., male SD rats, 7 hours.
[5] abbreviates: 3.0 mg/Kg, intraperitoneal, 15 min before indomethacin 30 mg/kg s.c., male SD rats, 7 hours.

On to `C=C1[C@@H](O)[C@]2(O)OC[C@]34[C@H]2[C@@]2(C)[C@H](O)C(=O)CC(C)[C@@H]2C[C@H]3OC(=O)[C@H](O)[C@@]14O` (single isomer, unassigned) [IIh, 3,4-Dihydroeurycomanone], for which the inhibition in vivo at 3 mg/kg in data set [1] (7 h) is -10%.

With `CC1=CC(=O)[C@@H](O)[C@]2(C)[C@H]3[C@@]4(O)OC[C@@]35[C@@H](C[C@@H]12)OC(=O)C[C@H]5[C@]1(CO1)[C@H]4O` [IIa, 13α,18-Epoxy-13,18-dihydroailanthone], the LD50 – broadly, the dose expected to kill half of the subjects tested – in data set [2] is over 100 mg/kg. In addition, the inhibition in vivo at 0.3 mg/kg in data set [1] (setting [3]) turned out to be 36.8%. Moreover, in data set [1] (setting [4]), the inhibition in vivo at 1 mg/kg amounted to 77.1%. Also, in data set [1] (setting [5]), the inhibition in vivo at 3 mg/kg is 100%.

In the case of `CC1=CC(=O)[C@@H](O)[C@]2(C)[C@H]3[C@@]4(O)OC[C@@]35[C@@H](C[C@@H]12)OC(=O)C[C@H]5[C@@]1(CO1)[C@H]4O` [IIb, 13β,18-Epoxy-1,3,18-dihydroailanthone], the LD50 in data set [2] was over 30 mg/kg. The inhibition in vivo at 3 mg/kg in data set [1] (setting [5]) is 74.4%.

As for `CC1CC(=O)[C@@H](O)[C@]2(C)[C@H]3[C@@]4(O)OC[C@@]35[C@@H](C[C@@H]12)OC(=O)C[C@H]5C(C)[C@H]4O` (stereo partly shown) [IIc, 3,4,13,18-Tetrahydroailanthone], the LD50 in data set [2] is over 30 mg/kg. For the same compound, the inhibition in vivo at 3 mg/kg in data set [1] (setting [5]) was determined as 13.7%.

In the case of `CC1=CC(=O)[C@@H](O)[C@]2(C)[C@H]3[C@@]4(O)OC[C@@]35[C@@H](C[C@@H]12)OC(=O)C[C@H]5C(C)[C@H]4O` (stereo partly shown) [IId, 13,18-dihydroailanthone], in data set [2], the LD50 is over 30 mg/kg. In data set [1] (7 h), the inhibition in vivo at 3 mg/kg was 67.8%.

On to `CC1=CC(=O)[C@@H](O)[C@]2(C)[C@H]3[C@@]4(O)OC[C@@]35[C@@H](C[C@@H]12)OC(=O)[C@H](O)[C@@]5(O)[C@]1(CO1)[C@H]4O` [IIe, 13α,18-Epoxy-13,18-dihydroeurycomanone], for which the inhibition in vivo at 3 mg/kg in data set [1] (7 h) worked out at 4.9%.

Consider `CC1=CC(=O)[C@@H](O)[C@]2(C)[C@H]3[C@@]4(O)OC[C@@]35[C@@H](C[C@@H]12)OC(=O)[C@H](O)[C@@]5(O)[C@@]1(CO1)[C@H]4O` [IIf, 13β,18-Epoxy-13,18-dihydroeurycomanone], for which the LD50 in data set [2] is 5.5 mg/kg. Moreover, in data set [1] (7 h), the inhibition in vivo at 0.1 mg/kg stood at 26.4%, the inhibition in vivo at 0.3 mg/kg is 71.3% and the inhibition in vivo at 1 mg/kg is 92.6%.

`CC1=CC(=O)[C@@H](O)[C@]2(C)[C@H]3[C@@]4(O)OC[C@@]35[C@@H](C[C@@H]12)OC(=O)[C@H](O)[C@@]5(O)[C@@H](C)[C@H]4O` [IIg-A, 13β,18-Dihydro compound]: the inhibition in vivo at 3 mg/kg in data set [1] (7 h) turned out to be 47.1%.

Turning to `CC1=CC(=O)[C@@H](O)[C@]2(C)[C@H]3[C@@]4(O)OC[C@@]35[C@@H](C[C@@H]12)OC(=O)[C@H](O)[C@@]5(O)[C@H](C)[C@H]4O` [IIg-B, 13α,18-Dihydro compound], the inhibition in vivo at 3 mg/kg in data set [1] (7 h) is -3.1%.

The compound `C=C1[C@@H](O)[C@]2(O)OC[C@]34[C@H]2[C@@]2(C)[C@H](O)C(=O)C=C(C)[C@@H]2C[C@H]3OC(=O)[C@H](O)[C@@]14O` [Ib, eurycomanone] gave an LD50 in data set [2] of 18.9 mg/kg. The inhibition in vivo at 0.1 mg/kg in data set [1] (0.1 mg/Kg, intraperitoneal, 15 min before indomethacin 30 mg/kg s.c., male SD rats, 7 hours) was found to be 12.5%. In addition, the inhibition in vivo at 0.3 mg/kg in data set [1] (setting [3]) is 58.5%. Moreover, in data set [1] (setting [4]), the inhibition in vivo at 1 mg/kg stood at 94.7%.

The values are drawn from patent publication US4731459A, “Novel anti-ulcer agents and quassinoids” (Shionogi & Co., Ltd., priority 1985, dated 1988).
